Patent publication US20190054054A1, “Methods reducing or preventing oxidation of high density lipoprotein (HDL)” (Amarin Pharmaceuticals Ireland Limited, priority 2017, published 2019)

What was measured:
[1] = tested on: HUVECs; assay: NO and ONOO^− release from pretreated HUVECs exposed to native LDL undergoing oxidation (Example 11, Objective 3); format: cell-based, human; conditions: cells pretreated 30 min, agents each at 10 μM; native LDL 11 mg/dL pretreated with the same agents under auto-oxidation; 60 min
Experimental: The omega-3 fatty acid, cis-5,8,11,14,17-eicosapentaenoic acid (EPA) and docosahexaenoic acid (DHA) were purchased from Sigma-Aldrich (Saint Louis, Mo.) and solubilized in redistilled ethanol to 11 mM under nitrogen atmosphere. EPA and DHA stock solutions were stored at −20° C. until use.
Human umbilical vein endothelial cells (HUVECs) were obtained from healthy, female donors and isolated into primary, proliferating cell cultures (Clonetics, San Diego, Calif.). The cells were incubated in 95% air/5% CO2 at 37° C. and passaged by an enzymatic (trypsin) procedure. The confluent cells (4 to 5×10^5 cells/35 mm dish) were plated with minimum essential medium containing 3 mM L-arginine and 0.1 mM BH4 [(6R)-5,6,7,8-tetrahydrobiopterin]. Before experimental use, the cells (from second or third passage) were rinsed twice with Tyrode-HEPES buffer with 1.8 mM CaCl2.
Venous blood was collected from healthy volunteers into vacutainer tubes containing sodium EDTA. Plasma was separated by centrifugation at 3000 g for 25 min at 4° C. and adjusted to a density of 1.020 g/mL with KBr. Triglyceride-rich lipoproteins (TGRL) and LDL fractions were isolated by sequential centrifugation at 70,000 rpm at 4° C. in a Beckman LE-80 ultracentrifuge using a Beckman 50.4Ti rotor (Beckman Coulter, Inc., Fullerton, Calif.). The TGRL fraction (with a relative density of <1.020) was aspirated from the top of the centrifugate and discarded, leaving an LDL-enriched infranate (with a relative density of 1.020-1.063). The LDL subfraction was retained for additional experimentation. Plasma and lipoprotein fractions were maintained at 4° C. and protected from excessive exposure to light. Prior to oxidation experiments, EDTA was removed from the lipoprotein fraction using PD-10 desalting columns (GE Healthcare, Piscataway N.J.). After equilibration of the column with phosphate buffered saline (PBS), 2.5 mL of the lipoprotein fraction was loaded on the column and the flow-through discarded. The lipoprotein was then eluted with 3 mL of PBS. The LDL fractions were further diluted with PBS to obtain a 100 μg/mL apoB100 concentration.
LDL underwent oxidation following the addition of 10 μM CuSO4. […] Sample TBARS concentrations were determined spectrophotometrically by measuring sample absorbances against a standard curve derived from the hydrolysis of 1,1,3,3-tetramethoxypropane. […]
The amperometric method (with a response time of 0.1 ms) provides a quantitative signal (current) that is directly proportional to changes (from basal levels) in NO or ONOO^− concentration. […] Basal NO or ONOO^− levels were measured by differential pulse voltammetry in separate experiments. […]

[2] = Glucose- and peroxidation-induced cholesterol domain formation, small angle x-ray diffraction (Example 4); conditions: 1:30 mole ratio; for effect on membrane structure as compared to control: at the start of the experiment (0 hours)
Experimental: Samples were shell-dried under nitrogen gas and placed under vacuum for 1 h to remove residual solvent. […] Lipid suspensions were then vortexed for 3 min at ambient temperature to form MLVs. […] Membrane lipid vesicles were oriented for x-ray diffraction analysis as described by others (e.g., Herbette et al., Biophys. […] Briefly, a 100 μL aliquot (containing 250 μg MLV) was aspirated from each sample and transferred to a Lucite® sedimentation cell fitted with an aluminum foil substrate upon which a given sample could be collected by centrifugation. Samples were then loaded into a Sorvall AH-629 swinging bucket rotor (DuPont Corp., Wilmington, Del.) and centrifuged at 35,000 g, 5° C., for 90 min. After centrifugal orientation, sample supernatants were aspirated and aluminum foil substrates, each supporting a single membrane pellet, were removed from the sedimentation cells. Sample pellets were dried for 5-10 min at ambient conditions, mounted onto curved glass supports, and placed in hermetically-sealed, brass or glass containers (for immediate analysis or temporary storage, respectively). All x-ray diffraction experiments were conducted at 20° C., 74% relative humidity. The latter was established by exposing membrane samples to saturated solutions of L-(+) tartaric acid (K2C4H4O6.½H2O). Samples were incubated at these conditions for at least 1 hour prior to experimental analysis. Oriented membrane samples were aligned at grazing incidence with respect to a collimated, mono-chromatic CuKα x-ray beam (Kα1 and Kα2 unresolved; λ=1.54 Å) produced by a Rigaku Rotaflex RU-200, high-brilliance microfocus generator (Rigaku-MSC, The Woodlands, Tex.) as previously described (Mason et al., Biophys. J., vol. 55(4), pages 769-778 (1989)). Diffraction data were collected on a one-dimensional, position-sensitive electron detector (Hecus X-ray Systems, Graz, Austria) at a sample-to-detector distance of 150 mm. […] The d-space for any given membrane multibilayer is a measurement of the unit cell periodicity of the membrane lipid bilayer (e.g., the distance from the center of one lipid bilayer to the next including surface hydration), and is calculated from Bragg's Law, h λ=2 d sin θ, where h is the diffraction order, λ is the wavelength of the x-ray radiation (1.54 Å), d is the membrane lipid bilayer unit cell periodicity, and θ is the Bragg angle equal to one-half the angle between the incident beam and scattered beam. […] Under the specific temperature and relative humidity conditions established for these experiments, the second-order, 17 Å cholesterol domain peak was well-delineated from other, neighboring cholesterol and phospholipid diffraction peaks and was thus used to quantitate relative cholesterol domain peak intensity. […]

Row | Compound | NO [1] | ONOO^− [1] | inhibition of relative cholesterol domain peak intensity ([2]; 96-hour time point, compared to vehicle or vitamin E) | effect on membrane structure as compared to control ([2]; glucose 200 mg/dL) | effect on cholesterol domain formation as compared to control ([2]; any experimental time point, glucose 200 mg/dL)
1 | CC/C=C\C/C=C\C/C=C\C/C=C\C/C=C\C/C=C\CCC(=O)O [DHA, docosahexaenoic acid] | 406 ± 40 | 212 ± 26 | – | – | –
2 | CC/C=C\C/C=C\C/C=C\C/C=C\C/C=C\CCCC(=O)O [EPA, cis-5,8,11,14,17-eicosapentaenoic acid] | 419 ± 37 | 207 ± 24 | more than 99% | no appreciable effect on membrane structure | –
3 | Cc1c(C)c2c(c(C)c1O)CC[C@@](C)(CCC[C@H](C)CCC[C@H](C)CCCC(C)C)O2 [vitamin E, α-tocopherol] | – | – | – | no appreciable effect on membrane structure | no significant effect on cholesterol domain formation
